# Tests used:
# LRH-1 LBD = target: T1, LRH-1 LBD (Homo sapiens, UniProt O00482); assay: Thermofluor (DSF) assay, purified LRH-1 LBD-His protein; format: binding; conditions: for ΔTm at 50 µM: read-out: ΔTm (mean +/− SEM) (° C.)
# T1 construct: LRH-1 LBD (residues 299-541) in the pMSC7 vector was expressed in BL21 (DE3) pLysS E. coli; made in house; host or cells: E. coli BL21 (DE3) pLysS
# Experimental: Thermofluor assays—Purified LRH-1 LBD-His protein (0.2 mg/ml) was incubated overnight with 50 μM of each compound at 4° C. The final DMSO concentration in the reactions was 1%. SYPRO orange dye (Invitrogen) was then added at a 1:1000 dilution. Reactions were heated at a rate of 0.5° C. per minute, using a StepOne Plus Real Time PCR System (ThermoFisher). […] Data were analyzed by first subtracting baseline fluorescence (ligands+SYPRO with no protein) and then fitting the curves using the Bolzman equation (GraphPad Prism, v6) to determine the Tm. […]
# LRH-1 = target: T2, LRH-1 (Homo sapiens, UniProt O00482); assay: Luciferase reporter assay (SHP-luc) in HeLa cells transfected with full-length LRH-1; format: cell-based; conditions: for EC50 / EC50 (μM): HeLa cells, SHP-luc reporter, 24 hours, 0.03-30 μM; for Relative Efficacy: fold increase over baseline (DMSO-treated cells) relative to the fold increase induced by RJW100
# T2 construct: The transfected plasmids included full-length LRH-1 in a pCI vector; expressed in transfected cells; host or cells: HeLa
# Experimental: EC50 and Relative Activity values were calculated from luciferase reporter assays.
# [1] = 50 μM compound, relative to DLPC-bound LRH-1
# T2 sequence (O00482 whole entry): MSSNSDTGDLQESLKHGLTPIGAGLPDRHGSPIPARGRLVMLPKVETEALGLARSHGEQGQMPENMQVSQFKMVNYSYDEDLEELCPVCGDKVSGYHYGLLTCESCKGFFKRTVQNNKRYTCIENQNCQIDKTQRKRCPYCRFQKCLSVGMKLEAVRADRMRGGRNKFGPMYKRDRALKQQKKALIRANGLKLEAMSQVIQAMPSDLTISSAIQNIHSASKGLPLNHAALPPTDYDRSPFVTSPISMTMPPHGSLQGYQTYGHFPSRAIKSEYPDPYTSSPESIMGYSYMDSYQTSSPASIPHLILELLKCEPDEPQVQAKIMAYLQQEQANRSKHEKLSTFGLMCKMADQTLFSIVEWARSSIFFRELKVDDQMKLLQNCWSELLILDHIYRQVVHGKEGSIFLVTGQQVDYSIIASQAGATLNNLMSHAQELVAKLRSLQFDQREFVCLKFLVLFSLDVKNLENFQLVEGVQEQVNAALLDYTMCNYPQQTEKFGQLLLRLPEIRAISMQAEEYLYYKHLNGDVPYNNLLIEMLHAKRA
# T1 sequence (O00482 299-541): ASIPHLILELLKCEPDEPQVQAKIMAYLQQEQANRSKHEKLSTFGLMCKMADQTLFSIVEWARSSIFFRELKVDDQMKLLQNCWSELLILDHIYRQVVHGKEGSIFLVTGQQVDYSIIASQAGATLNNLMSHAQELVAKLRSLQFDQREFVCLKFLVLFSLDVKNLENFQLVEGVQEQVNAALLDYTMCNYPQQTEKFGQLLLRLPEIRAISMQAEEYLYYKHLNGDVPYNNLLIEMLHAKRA
ΔTm at 50 µM (LRH-1 LBD; [1]) [°C],EC50 (LRH-1) [µM],Relative Efficacy (LRH-1),SMILES,also measured
2.5,0.3,1.74,"C=C(c1ccccc1)[C@@]12CC[C@@H](O)[C@@H]1CC(CCCCCCCCCCC(=O)O)=C2c1ccccc1 (relative stereo) [Compound 12f, 11-(6-exo-hydroxy-3-phenyl-3a-(1-phenylvinyl)-1,3a,4,5,6,6a-hexahydropentalen-2-yl)undecanoic acid]",–
3.7,4,1.17,"C=C(c1ccccc1)[C@@]12CC[C@@H](O)[C@@H]1CC(CCCCCCC(=O)O)=C2c1ccccc1 (relative stereo) [Compound 8f, 7-(6-exo-hydroxy-3-phenyl-3a-(1-phenylvinyl)-1,3a,4,5,6,6a-hexahydropentalen-2-yl)heptanoic acid]",–
4.7,2,0.87,"C=C(c1ccccc1)C12CCC(O)C1CC(CCCCCCCCCCCO)=C2c1ccccc1 (stereo not drawn) [Compound 12e, Exo-5-(11-hydroxyundecyl)-4-phenyl-3a-(1-phenylvinyl)-1,2,3,3a,6,6a-hexahydropentalen-1-ol]",–
–,17,3.35,"C=C(c1ccccc1)[C@@]12CC[C@@H](O)[C@@H]1CC(CCCCCCCC(=O)OC[C@H](COP(=O)([O-])OCC[N+](C)(C)C)OC(=O)CC)=C2c1ccccc1 [Compound 14d, (2R)-3-((8-(6-(exo)-hydroxy-3-phenyl-3a-(1-phenylvinyl)-1,3a,4,5,6,6a-hexahydropentalen-2-yl)octanoyl)oxy)-2-(propionyloxy) propyl(2-(trimethylammonio)ethyl) phosphate]",–
-1.9,–,–,"C=C(c1ccccc1)[C@@]12CC[C@@H](O)C1CC(CCCCCC)=C2c1cc(O)ccc1C (mixture of isomers) [Compound 17f, (Exo)-5-hexyl-4-(5-hydroxy-2-methylphenyl)-3a-(1-phenylvinyl)-1,2,3,3a,6,6a-hexahydropentalen-1-ol]",–
-2.4,5,2.48,"C=C(c1ccccc1)[C@@]12CC[C@@H](O)[C@@H]1CC(CCCCCCCCCCOP(=O)([O-])OCC[N+](C)(C)C)=C2c1ccccc1 (relative stereo) [Compound 11g, 10-(6-exo-hydroxy-3-phenyl-3 a-(1-phenylvinyl)-1,3a,4,5,6,6a-hexahydropentalen-2-yl)decyl (2-(trimethylammonio)ethyl) phosphate]",–
4.4,4,2.48,"C=C(c1ccccc1)[C@@]12CC[C@@H](O)[C@@H]1CC(CCCCCCCC(=O)O)=C2c1ccccc1 (relative stereo) [Compound 9f, 8-(6-exo-hydroxy-3-phenyl-3a-(1-phenylvinyl)-1,3a,4,5,6,6a-hexahydropentalen-2-yl)octanoic acid]",–
–,–,0.06,"C=C(c1ccc(Br)cc1)[C@@]12CC[C@@H](O)C1CC(CCCCCC)=C2c1ccccc1 (mixture of isomers) [Compound 23a, (Exo)-3a-(1-(4-bromophenyl)vinyl)-5-hexyl-4-phenyl-1,2,3,3a,6,6a-hexahydropentalen-1-ol]",EC50 (μM) (LRH-1): cnc
–,12,0.96,"C=C(c1ccccc1)C12CCC(O)C1CC(CCCCCCCC(=O)N1CCC(COP(=O)([O-])OCC[N+](C)(C)C)C1)=C2c1ccccc1 [Compound 13b, ((3R)-1-(8-(6-(exo)-hydroxy-3-phenyl-3a-(1-phenylvinyl)-1,3a,4,5,6,6a-hexahydropentalen-2-yl)octanoyl)pyrrolidin-3-yl)methyl (2-(trimethylammonio)ethyl)phosphate]",–

# Continued, compound first:
SMILES,ΔTm at 50 µM (LRH-1 LBD; [1]) [°C],EC50 (LRH-1) [µM],Relative Efficacy (LRH-1),also measured
"C=C(c1ccccc1)[C@@]12CC[C@H](OS(C)(=O)=O)C1CC(CCCCCC)=C2c1ccccc1 (stereo partly drawn) [Compound 30-endo, (Endo or Exo) 5-hexyl-4-phenyl-3a-(1-phenylvinyl)-1,2,3,3a,6,6a-hexahydropentalen-1-yl methanesulfonate]",3,0.5,0.72,–
"C=C(c1ccccc1)[C@@]12CC[C@@H](NC(C)=O)C1CC(CCCCCC)=C2c1ccccc1 (stereo partly drawn) [Compound 35-exo, N-((endo or exo)-5-hexyl-4-phenyl-3a-(1-phenylvinyl)-1,2,3,3a,6,6a-hexahydropentalen-1-yl) acetamide]",-1.1,17,–,–
"C=C(c1ccccc1)[C@@]12CC[C@H](OS(N)(=O)=O)C1CC(CCCCCC)=C2c1ccccc1 (stereo partly drawn) [Compound 28-endo, (Endo or Exo)-5-hexyl-4-phenyl-3a-(1-phenylvinyl)-1,2,3,3a,6,6a-hexahydropentalen-1-yl sulfamate]",8,–,–,–
"C=C(c1ccccc1)C12CCC(O)C1CC(CCCCCCO)=C2c1ccccc1 (stereo not drawn) [Compound 7e, Exo-5-(6-hydroxyhexyl)-4-phenyl-3a-(1-phenylvinyl)-1,2,3,3a,6,6a-hexahydropentalen-1-ol]",3.3,1,1.74,–
"C=C(c1ccccc1)[C@@]12CC[C@@H](O)[C@@H]1CC(CCCCCC(=O)O)=C2c1ccccc1 (relative stereo) [Compound 7f, 6-(6-exo-hydroxy-3-phenyl-3a-(1-phenylvinyl)-1,3a,4,5,6,6a-hexahydropentalen-2-yl)hexanoic acid]",5.5,9,2.22,–
"C=C(c1ccccc1)[C@@]12CC[C@@H](O)C1CC(CCCCCCCCOC(C)=O)=C2c1ccccc1 (stereo partly drawn) [Compound 47-endo, (Exo or Endo) 8-(6-hydroxy-3-phenyl-3a-(1-phenylvinyl)-1,3a,4,5,6,6a-hexahydropentalen-2-yl)octyl acetate]",–,–,1.48,"ΔTm (mean +/− SEM) (° C.) (LRH-1 LBD; 50 μM compound, relative to DLPC-bound LRH-1, 50 µM): ns (Ns = Tm changes were less than 1° C.)"
"C=C(c1ccccc1)C12CCC(OS(=O)(=O)NC(N)=O)C1CC(CCCCCC)=C2c1ccccc1 (stereo not drawn) [Compound 50-endo, (Endo or Exo)-5-hexyl-4-phenyl-3a-(1-phenylvinyl)-1,2,3,3a,6,6a-hexahydropentalen-1-yl carbamoylsulfamate]",–,–,–,stabilization of LRH-1-ligand complex / Tm shift (LRH-1 LBD; WT LRH-1): greatly stabilized the LRH-1-ligand complex; LRH-1 activation (LRH-1; WT LRH-1): comparable or slightly higher LRH-1 activation
"C=C(c1ccccc1)C12CC(O)C(O)C1CC(CCCCCC)=C2c1ccccc1 (stereo not drawn) [Compound 52, 5-hexyl-4-phenyl-3a-(1-phenylvinyl)-1,2,3,3a,6,6a-hexahydropentalene-1,2-diol]",–,0.01,−0.25,–
"C=C(c1ccccc1)[C@@]12CC[C@@H](OC(=O)NS(=O)(=O)O)C1CC(CCCCCC)=C2c1ccccc1 (stereo partly drawn) [Compound 40-exo, ((((endo or exo)-5-hexyl-4-phenyl-3a-(1-phenylvinyl)-1,2,3,3a, 6,6a-hexahydropentalen-1-yl)oxy)carbonyl)sulfamic acid]",–,> 30,0,–
"C=C(c1ccccc1)[C@@]12CC[C@H](NC(N)=O)C1CC(CCCCCC)=C2c1ccccc1 (stereo partly drawn) [Compound 36-endo, 1-((endo or exo)-5-hexyl-4-phenyl-3a-(1-phenylvinyl)-1,2,3,3a, 6,6a-hexahydropentalen-1-yl) urea]",1.1,–,–,–
"C=C(c1ccccc1)[C@@]12CC[C@@H](OS(N)(=O)=O)C1CC(CCCCCC)=C2c1ccccc1 (stereo partly drawn) [Compound 28-exo, (Endo or Exo)-5-hexyl-4-phenyl-3a-(1-phenylvinyl)-1,2,3,3a,6,6a-hexahydropentalen-1-yl sulfamate]",5.1,–,–,–
"C=C(c1ccccc1F)[C@@]12CC[C@@H](O)C1CC(CCCCCC)=C2c1ccccc1 (mixture of isomers) [Compound 20, (Exo)-3a-(1-(2-fluorophenyl)vinyl)-5-hexyl-4-phenyl-1,2,3,3a,6,6a-hexahydropentalen-1-ol]",1.4,–,–,–
"C=C(c1ccccc1)C12CCC(CN)C1CC(CCCCCC)=C2c1ccccc1 (stereo not drawn) [Compound 48-endo, (endo or exo) (5-hexyl-4-phenyl-3a-(1-phenylvinyl)-1,2,3,3a,6,6a-hexahydropentalen-1-10 yl)methanamine]",0,–,–,–
"C=C(c1ccccc1)C12CC(O)C(CN)C1CC(CCCCCC)=C2c1ccccc1 (stereo not drawn) [Compound 51, 3-(aminomethyl)-5-hexyl-6-phenyl-6a-(1-phenylvinyl)-1,2,3,3a,4,6a-hexahydropentalen-2-ol]",–,–,0.65,EC50 (μM) (LRH-1): cnc
"C=C(c1ccccc1)[C@@]12CC[C@@H](NC(N)=O)C1CC(CCCCCC)=C2c1ccccc1 (stereo partly drawn) [Compound 36-exo, 1-((endo or exo)-5-hexyl-4-phenyl-3a-(1-phenylvinyl)-1,2,3,3a, 6,6a-hexahydropentalen-1-yl) urea]",-1.4,–,–,–
"C=C(c1ccccc1)[C@@]12CC[C@H](NC(C)=O)C1CC(CCCCCC)=C2c1ccccc1 (stereo partly drawn) [Compound 35-endo, N-((endo or exo)-5-hexyl-4-phenyl-3a-(1-phenylvinyl)-1,2,3,3a,6,6a-hexahydropentalen-1-yl) acetamide]",0.4,–,–,–
"C=C(c1ccccc1C)[C@@]12CC[C@@H](O)C1CC(CCCCCC)=C2c1ccccc1 (mixture of isomers) [Compound 21, (Exo)-5-hexyl-4-phenyl-3a-(1-(o-tolyl)vinyl)-1,2,3,3a,6,6a-hexahydropentalen-1-ol]",1.3,–,–,–
